One may read the IC50 as the concentration that gives 50% inhibition. Lower therefore signals greater potency in that assay.

The source of these data is patent US20260365647A1, “AKT1 MODULATORS” (Alterome Therapeutics, Inc., priority 2022, published 2026).

Structures are written as SMILES.

For the assay, the target named is T1, AKT1-E17K (Homo sapiens, UniProt P31749, E17K).
T1 construct: host or cells: HEK-293 (ATCC CRL-1573)
T1 sequence (P31749 whole entry E17K): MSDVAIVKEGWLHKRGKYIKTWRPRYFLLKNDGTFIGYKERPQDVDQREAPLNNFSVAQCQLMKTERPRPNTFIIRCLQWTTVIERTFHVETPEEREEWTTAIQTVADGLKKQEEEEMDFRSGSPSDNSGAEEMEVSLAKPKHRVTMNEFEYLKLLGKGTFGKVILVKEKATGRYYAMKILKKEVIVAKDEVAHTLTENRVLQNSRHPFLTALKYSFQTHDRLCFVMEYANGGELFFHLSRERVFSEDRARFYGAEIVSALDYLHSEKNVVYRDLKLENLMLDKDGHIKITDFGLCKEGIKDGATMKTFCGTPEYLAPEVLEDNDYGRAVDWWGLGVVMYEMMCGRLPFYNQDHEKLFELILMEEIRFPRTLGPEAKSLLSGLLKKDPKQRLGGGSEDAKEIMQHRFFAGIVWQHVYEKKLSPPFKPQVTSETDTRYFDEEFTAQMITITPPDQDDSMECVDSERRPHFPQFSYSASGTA
Put plainly: NanoBRET Target Engagement (TE) Assay. Format: cell-based. An outline of the steps:
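Live cells transiently expressing NanoLuc-AKT1 E17K fusion, incubated 2 h with tracer and compound before substrate plus extracellular NanoLuc inhibitor were added. BRET read at 450/600 nm; EC50 from variable-slope sigmoidal fit of tracer displacement.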
As for `Nc1ncccc1-c1nc2ccc(-c3ccccc3)nc2n1-c1ccc(CN2CCC3(CCN(c4ccc(O)c(C=O)c4)C3)C2)cc1` (centres unmarked) [Example 83, 5-(7-(4-(2-(2-Aminopyridin-3-yl)-5-phenyl-3H-imidazo[4,5-b]pyridin-3-yl)benzyl)-2,7-diazaspiro[4.4]nonan-2-yl)-2-hydroxybenzaldehyde], the IC50 lay in the range of 0.06 to 0.6 µM.

Take `Nc1ncccc1-c1nc2ccc(-c3ccccc3)nc2n1-c1ccc(CN2CCC[C@@H](NC(=O)c3ccc(C=O)c(O)c3)C2)cc1` [Example 63, (R)—N-(1-(4-(2-(2-Aminopyridin-3-yl)-5-phenyl-3H-imidazo[4,5-b]pyridin-3-yl)benzyl)piperidin-3-yl)-4-formyl-3-hydroxybenzamide]: the IC50 lay within 0.06 to 0.6 µM.

With `Nc1ncccc1-c1nc2ccc(-c3ccccc3)nc2n1-c1ccc(CN2CC3(C2)CN(c2ccc(C=O)c(O)c2)C3)cc1` [Example 89, 4-(6-(4-(2-(2-aminopyridin-3-yl)-5-phenyl-3H-imidazo[4,5-b]pyridin-3-yl)benzyl)-2,6-diazaspiro[3.3]heptan-2-yl)-2-hydroxybenzaldehyde], the 50% inhibitory concentration (IC50) is 0.015 to 0.06 µM. As for `CN(Cc1ccc(-n2c(-c3cccnc3N)nc3ccc(-c4ccccc4)nc32)cc1)c1ccc(C=O)c(O)c1` [Example 17, 4-((4-(2-(2-Aminopyridin-3-yl)-5-phenyl-3H-imidazo[4,5-b]pyridin-3-yl)benzyl)(methyl)amino)-2-hydroxybenzaldehyde], the concentration for half-maximal inhibition (IC50) is 0.06 to 0.6 µM. With `Nc1ncccc1-c1nc2ccc(-c3ccccc3)nc2n1-c1ccc(CN2CC3(CC(NC(=O)c4ccc(O)c(C=O)c4)C3)C2)cc1` [Example 69, N-(2-(4-(2-(2-Aminopyridin-3-yl)-5-phenyl-3H-imidazo[4,5-b]pyridin-3-yl)benzyl)-2-azaspiro[3.3]heptan-6-yl)-3-formyl-4-hydroxybenzamide] the figure was less than 0.015 µM; with `Nc1ncccc1-c1nc2ccc(-c3ccc(Cl)cc3)nc2n1-c1ccc(CN2CCN(c3ccc(O)c(C=O)c3)CC2)cc1` [Example 149, 5-(4-(4-(2-(2-aminopyridin-3-yl)-5-(4-chlorophenyl)-3H-imidazo[4,5-b]pyridin-3-yl)benzyl)piperazin-1-yl)-2-hydroxybenzaldehyde], more than 0.6 µM; with `Nc1ncccc1-c1nc2ccc(-c3ccc(Cl)cc3)nc2n1-c1ccc(CN2CCN(C(=O)c3ccc(C=O)c(O)c3)CC2)cc1` [Example 148, 4-(4-(4-(2-(2-aminopyridin-3-yl)-5-(4-chlorophenyl)-3H-imidazo[4,5-b]pyridin-3-yl)benzyl)piperazine-1-carbonyl)-2-hydroxybenzaldehyde], more than 0.6 µM. To `Nc1ncccc1-c1nc2ccc(-c3ccccc3)nc2n1-c1ccc(CN2CCC[C@@H](NC(=O)c3ccc(O)c(C=O)c3)C2)cc1` [Example 58, (R)—N-(1-(4-(2-(2-Aminopyridin-3-yl)-5-phenyl-3H-imidazo[4,5-b]pyridin-3-yl)benzyl)piperidin-3-yl)-3-formyl-4-hydroxybenzamide] belongs 0.015 to 0.06 µM; to `Nc1ncccc1-c1nc2ccc(-c3ccccc3)nc2n1-c1ccc(CN2CCCN(C(=O)c3ccc(O)c(C=O)c3)CC2)cc1` [Example 119, 5-(4-(4-(2-(2-Aminopyridin-3-yl)-5-phenyl-3H-imidazo[4,5-b]pyridin-3-yl)benzyl)-1,4-diazepane-1-carbonyl)-2-hydroxybenzaldehyde], 0.015 to 0.06 µM; to `Nc1ncccc1-c1nc2ccc(-c3cccc(Cl)c3)nc2n1-c1ccc(CN2CCN(C(=O)c3ccc(O)c(C=O)c3)CC2)cc1` [Example 42, 5-(4-(4-(2-(2-Aminopyridin-3-yl)-5-(3-chlorophenyl)-3H-imidazo[4,5-b]pyridin-3-yl)benzyl)piperazine-1-carbonyl)-2-hydroxybenzaldehyde], 0.06 to 0.6 µM. `Nc1ncccc1-c1nc2cccnc2n1-c1ccc(CNC(=O)c2ccc(O)c(C=O)c2)cc1` [Example 2, N-(4-(2-(2-Aminopyridin-3-yl)-3H-imidazo[4,5-b]pyridin-3-yl)benzyl)-3-formyl-4-hydroxybenzamide] yielded an IC50 of 0.06 to 0.6 µM.
